What was measured:
[1] = test system: glycogen synthase kinase-3 (GSK-3); set-up: method as in earlier work; details: ref previous screening of potential GSK-3 inhibitors among the Leishbox; cited from earlier work
[2] = Experimental lipophilicity elog(D) at pH 7.4 by retention time; format: physicochemical; details: pH 7.4, chromatographic
Description: The analysis was performed using LC-MS/MS (liquid chromatography-tandem mass spectrometry). The chromatography system used was a Prominence UFLC (Shimadzu Corporation, Kyoto, Japan), interfaced with a LCMS-8045 triple quadrupole mass spectrometer (Shimadzu Corporation, Kyoto, Japan) equipped with an electrospray ionization source (ESI).
For the determination of the distribution coefficient (elog(D)), a methodology based on the retention time of molecules in the stationary phase was used. The chromatogram was achieved on a Supelco Ascentis express RP amide HPLC column (5 cm x 2.1 mm, […]), using 5% methanol in 10 mM ammonium acetate pH 7.4 (A) and 100% methanol (B) as mobile phases. The mobile phase was eluted in binary gradient mode, as follows: 0 min: 95% A; 0.3 min: 100% A; 5.2 min: 0% A; 5.6 min: 0% A; 5.8 min: 100% A; 7.0 min: 100% A. The total run time was 7 min, and 5 μL of each sample were injected. The solutions of tested compounds were prepared at a concentration of 1.0 mg/mL in compound by adding the stock solution to a (1:1) mix of mobile phases A:B (internal standard at 200 nM), and the DMSO concentration was lower than 2%. […]

[3] = test system: L. infantum::tdTomato intracellular amastigotes; assay: Synergism between 2 and Sb^III against intracellular L. infantum amastigotes; format: cell-based, Leishmania infantum
Description: Cells derived from the human monocytic strain THP-1 were cultured in complete Rowell Park Memorial Institute (RPMI)-1640 medium (supplemented with 10% fetal bovine serum, 100 U/mL penicillin, and 100 μg/mL streptomycin). Monocytes were differentiated into macrophages by the addition of 20 ng/mL phorbol myristate acetate (PMA). After 72 h, the macrophages (5 × 10^4), in black 96-well microtiter plates (Corning Incorporated, Corning, NY), were infected with Leishmania (Leishmania) infantum (MHOM/BR/1974/PP75) promastigotes expressing red fluorescence protein on the second day of the stationary phase (20 parasites per macrophage) for 4 h. […] To investigate the possibility of synergism between Sb^III and compound 2, […] different concentrations of these drugs were used (1.0, 0.5, 0.2, 0.1, and 0.05 μg/mL), the solutions of Sb^III and 2 being prepared and diluted the day of the assay. The compounds were tested separately and in combination. […] The EC50 values were determined by nonlinear regression using a Variable slope model (log(concentration) vs growth inhibition) with the GraphPadPrism v8.2.0 (CA, USA) software. By normalizing the data as a fractional response, it was possible to perform the calculation using a Bayesian model. The results were compared to each other to determine whether the combination of compounds has a synergistic, antagonistic or additive effect. Controls with uninfected cells, untreated infected cells, infected cells treated with amphotericin B at 0.25 μM (positive control) or DMSO 1% were used. Quadruplicates were run on the same plate, and the experiments were repeated at least once.

Row | SMILES | GSK-3 inhibition [1] | elog(D) [2] | IC50 ([3]; Leishmania infantum, 72 h, read-out: IC50 against intracellular amastigotes of L. infantum) [µM] | effect of the combination of 2 and Sb^III (Bayesian model) ([3]; combination of 2 with Sb^III, in vitro against L. infantum)
1 | O=C(c1ccc(O)c(Cl)c1)N1CCN(c2cnccn2)CC1 [Compound 1, (3-Chloro-4-hydroxyphenyl)(4-(pyrazin-2-yl)piperazin-1-yl)methanone] | did not inhibit |  |  | 
2 | O=C(c1ccc(O)cc1)N1CCN(c2cnccn2)CC1 [Compound 2, (4-Hydroxyphenyl)(4-(pyrazin-2-yl)piperazin-1-yl)methanone] |  | 1.64 | 3.1 ± 1.3 | antagonistic

Reference: PMC12384620, “Hit-to-Lead Studies of Pyrazinylpiperazines against Visceral Leishmaniasis: Pharmacokinetic Profile and In Vivo Efficacy of Potent Compounds against Leishmania infantum” (ACS Pharmacology & Translational Science, 2025)
